# From patent US6565859B1, “Galenical formulations” (Novartis AG, priority 1993, dated 2003)
# Legend:
# in vivo = conditions: male, Wistar, rat, whole blood, po, 10 mg
# Protocol: (§1) Formulation A is an emulsion preconcentrate and formulation B is a microemulsion preconcentrate. 6 male Wistar rats of mean body weight of 300 g are used per form. One day before treatment, food is withdrawn from the rats but the rats are permitted free access to water. The rats are then anesthetized by intraperitoneal injection of 2×1 ml 20% urethane and a permanent catheter is inserted into the right vena jugularis to permit blood sampling. 500 ml/animal of the formulation is administered by gastric intubation 20 hours after the surgery. A total dose of 10 mg of drug per animal is administered. Blood samples of 0.7 ml are taken from the jugular catheter of each animal 15 minutes before drug administration and then 0.17, 0.5, 1, 1.5, 2, 3, 5 and 8 hours after drug administration. The samples are kept in heparinized tubes and are analysed by means of ELISA using microtitre plates coated with rapamycin specific antibodies. The animals are killed immediately after taking the last blood sample.
# [1] = Pharmacokinetics in rats after gastric intubation, blood levels by ELISA with rapamycin specific antibodies; conditions: Example 3; rapamycin given in formulations A and B, 10 mg per rat, oral
# Protocol: as §1
structure (smiles),measurement,setting,value
"CO[C@H]1C[C@@H]2CC[C@@H](C)[C@@](O)(O2)C(=O)C(=O)N2CCCC[C@H]2C(=O)O[C@H]([C@H](C)C[C@@H]2CC[C@@H](O)[C@H](OC)C2)CC(=O)[C@H](C)/C=C(\C)[C@@H](O)[C@@H](OC)C(=O)[C@H](C)C[C@H](C)/C=C/C=C/C=C/1C [rapamycin, Rapamycin]",Cmax,in vivo,2670 to 3400 ng/mL
same,absorption (result in words),[1],well absorbed
